For assay [1], the system named is IL6 production in RAW 264.7 macrophage cell line. The experiment in a line: Mouse IL6 quantification assay (LPS-stimulated macrophages, ELISA). The class given is cell-based. The following applies: RAW264.7, RAW 264.7 murine leukemia virus transformed macrophage cell lines, LPS stimulation, read-out: IL-6 % Inhibition at 30 μM. On the technique in general: In an ELISA, binding on a coated surface is turned into a signal by an enzyme label.

In assay [2] the test system is TNFα production in RAW 264.7 macrophage cell line. Briefly: Mouse TNF alpha quantification assay (LPS-stimulated macrophages, ELISA). The class given is cell-based. The following applies: RAW264.7, RAW 264.7 murine leukemia virus transformed macrophage cell lines, LPS stimulation, read-out: TNF-α % Inhibition at 30 μM.

Each structure is given as a SMILES string.

As a reminder, the inhibition is the change of the read-out against control, counted positive when it falls. Consider `Oc1nc(-c2ccccn2)nc2c1CCCN2` [drawing 2070], for which the inhibition at 30 µM fell in the range of 26 to 50% in assay [1] and 1 to 25% in assay [2].
For `COc1cnc(CN)[nH]c1=O` [drawing 2212] the same measures were 0% and 1 to 25%.
For `Nc1nc(-c2ccccn2)nc2c(Br)csc12` [drawing 2284] the same measures were 26 to 50% and 0%.
In the case of `Oc1nc(-c2ccccn2)nc2c(-c3cncnc3)csc12` [drawing 2326], the inhibition at 30 µM in assay [1] is 26 to 50%; in assay [2] it was 0%.
Taken in the same sequence, the figures for `O=C(CCc1c[nH]c2ccccc12)Nc1nnc(-c2ccccn2)[nH]1` [drawing 1941] were 51 to 75% and 0%.
Take `FC(F)(F)Sc1ccc(Cc2ccc(SC(F)(F)F)cc2)cc1` [drawing 2051]: the inhibition at 30 µM in assay [1] was 1 to 25%; in assay [2] it was 0%.
For `Oc1nc(-c2ccccn2)nc(Oc2cccc(C(F)(F)F)c2)c1O` [drawing 2385] the same measures were 1 to 25% and 1 to 25%.
Taken in the same sequence, the figures for `CC(C)C(=O)Nc1nc(CC(=O)Nc2nnc(-c3ccccn3)[nH]2)cs1` [drawing 1990] were 0% and 1 to 25%.
Taken in the same sequence, the figures for `COCCNc1nc(-c2cn(C)cn2)nc2sc(C)c(-c3ccccc3)c12` [drawing 2412] were 1 to 25% and 26 to 50%.
For `O=C(Nc1nnc(-c2ccccn2)[nH]1)C1COc2ccccc2C1` (stereo not shown) [drawing 1955], the inhibition at 30 µM in assay [1] is 26 to 50%; in assay [2], 1 to 25%.
For `COc1cc(-c2csc3c(O)nc(-c4ccccn4)nc23)cnc1C(F)(F)F` [drawing 2276] the same measures were 51 to 75% and 1 to 25%.
Take `Cc1sc2c(O)nc(-c3nccn3C)nc2c1-c1ccc(F)cc1F` [drawing 2448]: the values for the inhibition at 30 µM in assay [1] and in assay [2] were 51 to 75% and 0%, respectively.
For `c1ccc(-c2csc3nc(-c4ccccn4)nc(N4CCN(CCN5CCCC5)CC4)c23)cc1` [drawing 2153] the same measures were 26 to 50% and 0%.
For `COc1ccnc(-c2nc(O)c3ccsc3n2)c1` [drawing 2166] the same measures were 1 to 25% and 1 to 25%.
For `COc1nccc(CCNC(=O)c2csc3nc(-c4ccccn4)nc(N4CCOCC4)c23)n1` [drawing 2289] the same measures were 26 to 50% and 0%.
On to `COc1cccc(N2CCN(C(=O)c3csc4c(O)nc(-c5ccccn5)nc34)CC2)c1` [drawing 2167], for which the inhibition at 30 µM in assay [1] was 26 to 50%; in assay [2], 0%.
Taken in the same sequence, the figures for `COCCNc1nc(-c2nccn2C)nc2sc(-c3ccccc3)c(-c3ccncc3)c12` [drawing 2423] were 51 to 75% and 1 to 25%.
Taken in the same sequence, the figures for `Oc1nc(-c2ccccn2)nc2c(-c3ccccc3C(F)F)csc12` [drawing 2275] were 76 to 100% and 76 to 100%.
With `Cc1nnc(C(Nc2nc(-c3ccccn3)nc3scc(-c4ccccc4)c23)c2ccccc2)n1C` (stereo not shown) [drawing 2133], the inhibition at 30 µM in assay [1] and in assay [2] was 76 to 100% each time.
For `COCC1CCN(C(=O)c2csc3c(O)nc(N)nc23)CC1` [drawing 2090], the inhibition at 30 µM in assay [1] and in assay [2] was 1 to 25% in each case.
As to `O=C(c1ccn(-c2ccccc2)n1)N1CCCc2c(O)nc(-c3ccccn3)nc21` [drawing 2076], the inhibition at 30 µM lay within 76 to 100% in assay [1] and 26 to 50% in assay [2].
Taken in the same sequence, the figures for `COc1ccc(COCC(=O)Nc2nnc(-c3ccccn3)[nH]2)cc1` [drawing 2004] were 26 to 50% and 1 to 25%.
For `CCOCCC1CCN(C(=O)c2csc3c(O)nc(-c4ccccn4)nc23)CC1` [drawing 2103] the same measures were 76 to 100% and 1 to 25%.
